Reference: patent US10781214B2, “Kinase inhibitor against wild-type and mutant EGFR” (PRECEDO PHARMACEUTICALS CO., LTD, priority 2015, dated 2020)
Where two headings read alike, the source gives them in different places.

Key:
[1] = tested on: BaF3-TEL-EGFR-L858R (stably expressing EGFR L858R mutant kinase); test: Cell growth, Cell Titer-Glo, 72 h: BaF3-TEL-EGFR-L858R; assay type: cell-based; conditions: Mus musculus
From the text: (§1) In addition, this example further uses: mouse BaF3-TEL-EGFR (stably expressing wild-type EGFR kinase), mouse BaF3-TEL-EGFR-L858R (stably expressing EGFR L858R mutant kinase), mouse BaF3-TEL-EGFR-T790M (stably expressing EGFR T790M mutant kinase), mouse BaF3-FL-EGFR-DeI19 (stably expressing EGFR delE746_A750 mutant kinase), mouse BaF3-FL-EGFR-T790M-L858R (stably expressing EGFR T790M/L858R mutant kinase), mouse BaF3/P210 (stably expressing bcr/abl˜(P210) mutant kinase), mouse BaF3-TEL-ABL-T315I (stably expressing ABLT315I mutant kinase), mouse BaF3-FLT3-ITD (stably expressing FLT3/ITD mutant kinase), mouse BaF3-TEL-JAK2 (stably expressing JAK2 kinase), mouse BaF3-TEL-JAK3 (stably expressing JAK3 kinase), mouse BaF3-TPR-MET (stably expressing MET kinase), mouse BaF3-TEL-BLK (stably expressing BLK kinase), mouse BaF3-TEL-ABL (stably expressing ABL kinase), mouse BaF3-TEL-BMX (stably expressing BMX kinase), mouse BaF3-TEL-ALK (stably expressing ALK kinase). The above cell lines were all constructed by our laboratory according to the following method: the kinase region sequences of human […], EGFR L858R, EGFR T790M, EGFR delE746_A750, EGFR T790M/L858R, bcr/abl˜(P210), ABL T315I, FLT3/ITD, JAK2, JAK3, MET, BLK, ABL, BMX, ALK were amplified respectively by PCR, inserted respectively into MSCV-Puro vectors harboring N-terminal fragment and/or NPM fragment and/or TPR fragment (Clontech), then the vectors were stably transfected into mouse BaF3 cells by retrovirus methods and growth factor IL-3 was removed, eventually obtaining cell lines that are transferred protein (EGFR, EGFR L858R, EGFR T790M, EGFR delE746_A750, EGFR T790M/L858R, bcr/abl˜(P210), ABL T315I, FLT3/ITD, JAK2, JAK3, MET, BLK, ABL, BMX, ALK)-dependent.
(§2) The cells were incubated for 72 h, and then the number of viable cells was determined via quantitative determination with a microplate reader by using Cell Titer-Glo® (Promega, the USA) Luminescent Cell Viability Assay kit.

[2] = tested on: BaF3-TEL-EGFR-T790M (stably expressing EGFR T790M mutant kinase); test: Cell growth, Cell Titer-Glo, 72 h: BaF3-TEL-EGFR-T790M; assay type: cell-based; conditions: Mus musculus
From the text: as §1, §2

[3] = tested on: NCI-H460 (expressing wild-type EGFR gene); test: Cancer cell growth, Cell Titer-Glo, 72 h: NCI-H460; assay type: cell-based; conditions: Homo sapiens
From the text: (§3) Compounds of the present invention were further evaluated for their selectivity in inhibiting proliferation of cancer cells by testing effects of the novel kinase inhibitors on proliferation of cancer cells. In the examples the following cells were selected: human non-small cell lung cancer cell NCI-H1975 (expressing EGFR L858R/T790M double-mutant gene), human-derived non-small cell lung cancer cell PC-9 (expressing EGFR delE746_A750 mutant gene), human-derived non-small cell lung cancer cell HCC827 (expressing EGFR delE746_A750 mutant gene), human lung adenocarcinoma cell HCC4006 (expressing EGFR delE746_A750 mutant gene), human non-small cell lung cancer cell NCI-H3255 (expressing EGFR L858R mutant gene), human skin squamous carcinoma cell A431 (expressing wild-type EGFR gene), human non-small cell lung cancer cell A549 (expressing wild-type EGFR gene), human non-small cell lung cancer cell NCI-H460 (expressing wild-type EGFR gene), human non-small cell lung cancer cell NCI-H2122 (expressing wild-type EGFR gene), Chinese hamster ovary (CHO) cell (Cricetulus griseus, hamster, Chinese, ovary), Chinese hamster lung cell (CHL), mouse pro-B cell BaF3. The cells above were all purchased from (USA).
as §2

[4] = tested on: NCI-H3255 (expressing EGFR L858R mutant gene); test: Cancer cell growth, Cell Titer-Glo, 72 h: NCI-H3255; assay type: cell-based; conditions: Homo sapiens
From the text: as §3, §2

[5] = tested on: BaF3-TEL-EGFR (stably expressing wild-type EGFR kinase); test: Cell growth, Cell Titer-Glo, 72 h: BaF3-TEL-EGFR; assay type: cell-based; conditions: Mus musculus
From the text: as §1, §2

[6] = tested on: HCC827 (expressing EGFR delE746_A750 mutant gene); test: Cancer cell growth, Cell Titer-Glo, 72 h: HCC827; assay type: cell-based; conditions: Homo sapiens
From the text: as §3, §2

[7] = tested on: A549 (expressing wild-type EGFR gene); test: Cancer cell growth, Cell Titer-Glo, 72 h: A549; assay type: cell-based; conditions: Homo sapiens
From the text: as §3, §2

[8] = tested on: A431 (expressing wild-type EGFR gene); test: Cancer cell growth, Cell Titer-Glo, 72 h: A431; assay type: cell-based; conditions: Homo sapiens
From the text: as §3, §2

[9] = tested on: PC-9 (expressing EGFR delE746_A750 mutant gene); test: Cancer cell growth, Cell Titer-Glo, 72 h: PC-9; assay type: cell-based; conditions: Homo sapiens
From the text: as §3, §2

mouse pro-B cell BaF3 = test: Cell growth, Cell Titer-Glo, 72 h: BaF3; assay type: cell-based
From the text: as §3, §2

[10] = tested on: NCI-H1975 (expressing EGFR L858R/T790M double-mutant gene); test: Cancer cell growth, Cell Titer-Glo, 72 h: NCI-H1975; assay type: cell-based; conditions: Homo sapiens
From the text: as §3, §2

[11] = tested on: NCI-H2122 (expressing wild-type EGFR gene); test: Cancer cell growth, Cell Titer-Glo, 72 h: NCI-H2122; assay type: cell-based; conditions: Homo sapiens, NCI-H2122 cells
From the text: as §3, with “The cells above were all purchased from (USA).” left out
as §2

[12] = tested on: BaF3-FL-EGFR-T790M-L858R (stably expressing EGFR T790M/L858R mutant kinase); test: Cell growth, Cell Titer-Glo, 72 h: BaF3-FL-EGFR-T790M-L858R; assay type: cell-based; conditions: Mus musculus, BaF3-FL-EGFR-T790M-L858R cells
From the text: as §1, §2

[13] = tested on: EGFR and signaling proteins in A549, H1975, PC-9, H3255 and HCC827 cells; test: Effect on cell signaling pathways (phosphorylation of EGFR and downstream proteins); assay type: cell-based, human; conditions: A549, H1975, PC-9, H3255, HCC827 cells; 4 hour-treatment; 0.01-3 μM
[14] = BaF3-TEL-EGFR-L858R cells, read-out: GI50
[15] = BaF3-TEL-EGFR-T790M cells, read-out: GI50
[16] = NCI-H460 cells, 72 h, read-out: GI50
[17] = NCI-H3255 cells, 72 h, read-out: GI50
[18] = BaF3-TEL-EGFR cells, read-out: GI50
[19] = HCC827 cells, 72 h, read-out: GI50
[20] = A549 cells, 72 h, read-out: GI50
[21] = A-431, A431 cells, 72 h, read-out: GI50
[22] = PC-9 cells, 72 h, read-out: GI50
[23] = BaF3 cells, 72 h, read-out: GI50
[24] = NCI-H1975 cells, 72 h, read-out: GI50

Row | Compound | GI50 [1, 14] | GI50 [2, 15] | GI50 [4, 17] | GI50 [5, 18] | GI50 [6, 19] | GI50 [7, 20] | GI50 [8, 21] | GI50 [9, 22] | GI50 (mouse pro-B cell BaF3; [23]) | GI50 [10, 24] | GI50 [12] | other results
1 | C=CC(=O)Nc1cc(Nc2nccc(-c3cn(C)c4ccccc34)n2)c(OC)cc1N(C)CCN(C)C [AZD9291, reference compound] |  |  |  |  |  |  |  |  |  |  |  | GI50 [1]: 1.7 nM; GI50 [2]: 22 nM; GI50 ([3]; NCI-H460, 72 h): 4000 nM; GI50 ([4]; NCI-H3255, 72 h): 31 nM; GI50 [5]: 1800 nM; GI50 ([6]; HCC827, 72 h): 4 nM; GI50 ([7]; A549, 72 h): 5000 nM; GI50 ([8]; A-431, 72 h): […]; GI50 ([9]; PC-9, 72 h): 3 nM; GI50 (mouse pro-B cell BaF3; BaF3, 72 h): 2700 nM; GI50 ([10]; NCI-H1975, 72 h): […]
2 | C=CC(=O)Nc1cccc(Nc2nc(Nc3ccc(N4CCN(C(C)=O)CC4)cc3OC)ncc2C(F)(F)F)c1 [CO-1686, reference compound] | 6.3 nM | 130 nM | 250 nM | 2800 nM | 97 nM | 830 nM | 1200 nM | 130 nM | 970 nM | 440 nM |  | GI50 [3, 16]: 2500 nM
3 | C=CC(=O)N1CC[C@@H](n2nc(-c3ccc(OCc4cccc(F)c4)c(Cl)c3)c3c(N)ncnc32)C1 [Compound 4, (R)-1-(3-(4-amino-3-(3-chloro-4-((3-fluorobenzyl)oxy)phenyl)-1H-pyrazolo[3,4-d]pyrimidin-1-yl)pyrrolidin-1-yl)prop-2-en-1-one] | < 0.3 nM |  | 28 nM | 13 nM | 38 nM | 3700 nM | 17 nM | 28 nM | 4100 nM | 53 nM | < 0.3 nM | GI50 [11]: 130 nM
4 | C=CC(=O)N1CCC[C@@H](n2nc(-c3ccc(OCc4cccc(F)c4)c(OC)c3)c3c(N)ncnc32)C1 [Compound 8] |  |  | 56 nM |  | 84 nM | 2700 nM |  | 25 nM | > 10000 nM | 350 nM | 43 nM | 
5 | C=CC(=O)N1CCC[C@@H](n2nc(-c3ccc(OCc4ccccc4)c(F)c3)c3c(N)ncnc32)C1 [Compound 12, (R)-1-(3-(4-amino-3-(4-(benzyloxy)-3-fluorophenyl)-1H-pyrazolo[3,4-d]pyrimidin-1-yl)piperidin-1-yl)prop-2-en-1-one] |  | < 0.3 nM | 23 nM | 2800 nM | 39 nM | 4300 nM |  | 11 nM | 7400 nM | 80 nM |  | 
6 | C=CC(=O)N1CCC[C@@H](n2nc(-c3ccc(OCc4cccc(F)c4)c(F)c3)c3c(N)ncnc32)C1 [Compound 13, (R)-1-(3-(4-amino-3-(3-fluoro-4-((3-fluorobenzyl)oxy)phenyl)-1H-pyrazolo[3,4-d]pyrimidin-1-yl)piperidin-1-yl)prop-2-en-1-one] |  | < 0.3 nM | 15 nM | 2800 nM | 16 nM | 7000 nM |  | 2 nM | 5100 nM | 17 nM |  | 
7 | C=CC(=O)N1CCC[C@@H](n2nc(-c3ccc(OCc4cccc(C)n4)c(Cl)c3)c3c(N)ncnc32)C1 [Compound 29, (R)-1-(3-(4-amino-3-(3-chloro-4-((6-methylpyridin-2-yl)methoxy)phenyl)-1H-pyrazolo[3,4-d]pyrimidin-1-yl)piperidin-1-yl)prop-2-en-1-one] | < 0.3 nM | < 0.3 nM | 27 nM | 5400 nM | 36 nM | > 10000 nM | > 10000 nM | 35 nM | > 10000 nM | < 0.3 nM | 6 nM | GI50 [3, 16]: 4000 nM; phosphorylation of EGFR protein [13]: strongly inhibit; phosphorylation of proteins such as AKT308, eIF4E, P70S6K and ERK downstream of EGFR [13]: significant effect
8 | C=CC(=O)N1CCC[C@@H](n2nc(-c3ccc(OCc4ncc(C)c(OC)c4C)c(Cl)c3)c3c(N)ncnc32)C1 [Compound 36, (R)-1-(3-(4-amino-3-(3-chloro-4-((4-methoxy-3,5-dimethylpyridin-2-yl)methoxy)phenyl)-1H-pyrazolo[3,4-d]pyrimidin-1-yl)piperidin-1-yl)prop-2-en-1-one] |  |  | 44 nM | 3500 nM |  | 3400 nM | > 10000 nM | 24 nM | > 10000 nM | < 0.3 nM | < 0.3 nM | 
9 | C=CC(=O)Nc1cc(Cn2nc(-c3ccc(F)c(Cl)c3)c3c(N)ncnc32)ccc1N(C)CCN(C)C [Compound 40] |  |  | 3700 nM | 1300 nM | 1600 nM |  | 2600 nM | 1000 nM | 1900 nM | 1200 nM |  | 
